According to patent US10369139B2, “Crystalline compound as semicarbazide-sensitive amine oxidase (SSAO) enzyme inhibitor” (BENEVOLENTAI CAMBRIDGE LIMITED, priority 2015, dated 2019):
Counter-ions that a name gives are not always drawn.

Key:
Assay type in all cases: physicochemical
[1] = Hygroscopicity during long term storage, assessed by Karl Fischer titration; conditions: double LDPE liners, desiccant pouch, heat-sealed foil bag, HDPE keg
Description: The water content of each sample was measured on a Mettler Toledo DL39 Coulometer using Hydranal Coulomat AG reagent and an argon purge. Weighed solid samples were introduced into the vessel on a platinum TGA pan which was connected to a subaseal to avoid water ingress. Approx 10 mg of sample was used per titration and duplicate determinations were made.
(§1) Crystalline (3S)-Tetrahydrofuran-3-yl (4S)-4-isopropyl-1,4,6,7-tetrahydro-5H-imidazo[4,5-c]pyridine-5-carboxylate mesylate was also assessed for stability and hygroscopicity when dispensed in 3 g aliquots in double LDPE liners, sealed with cable tie and placed, with a desiccant pouch into a foil bag, which was subsequently heat-sealed. The foil bag was then placed into an HDPE keg fitted with an HDPE lid. These conditions mirror typical GMP level storage conditions. Stability was assessed by HPLC and hygroscopicity was assessed by Karl Fisher (KF) titration.

[2] = Stability during long term storage, assessed by HPLC; conditions: double LDPE liners, desiccant pouch, heat-sealed foil bag, HDPE keg
Description: Purity analysis was performed on an Agilent HP1100 series system equipped with a diode array detector and using ChemStation software vB.02.01-SR1 using the method detailed below (Table 1).
as §1

[3] = Hygroscopicity on storage at controlled temperature/relative humidity (Table 2)
Description: Crystalline mesylate salt was isolated and characterised using some or all of XRPD, ^1H NMR, DSC, TGA, GVS, IC, PLM, HSM, HPLC and KF (see Table 2).

[4] = after 6 months at 40° C./75% RH

CC(C)[C@H]1c2[nH]cnc2CCN1C(=O)O[C@H]1CCOC1 [Crystalline mesylate salt, (3S)-Tetrahydrofuran-3-yl (4S)-4-isopropyl-1,4,6,7-tetrahydro-5H-imidazo[4,5-c]pyridine-5-carboxylate, Methananesulfonic Acid Salt]
Water uptake (KF) [1, 4]: 0.1%
Water uptake (KF) ([1]; over 3 years at 25° C./60% RH): no water uptake
Degradation (HPLC) [2, 4]: 0.1%
Degradation (HPLC) ([2]; over 3 years at 25° C./60% RH): 0.1%
Hygroscopicity (time after which the sample deliquesced) ([3]; 40° C./75% RH): 3 days
Stability of the crystalline salt on storage (reduced hygroscopicity) ([3]; temperature of 40° C., relative humidity of 75%): up to three days

CC(C)[C@H]1c2[nH]cnc2CCN1C(=O)O[C@H]1CCOC1 [Free base, (3S)-Tetrahydrofuran-3-yl (4S)-4-isopropyl-1,4,6,7-tetrahydro-5H-imidazo[4,5-c]pyridine-5-carboxylate]
Hygroscopicity (time in which the sample deliquesced) ([3]; 25° C./60% RH): 25° C./60% RH in <24 h
